# Data: PubChem BioAssay AID540268 (Broad Institute, 2011)
# Activity calls are given as the source filed them. No rule for the calls is given here.
# Test: reduced viability of parasite-Hsp90 expressing yeast – ATP luminescence, 48 h, cherry-picked samples, anti-malarial Hsp90 inhibitor project, dose response (AID 540268);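 as to activity change, negative = inhibition: 0% = neutral control wells and -100% = positive control wells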
# Conditions: yeast expressing the parasite Hsp90, ATP luminescence; for activity change, negative = inhibition: at 26 µM (top of the series)
Structure (SMILES),AC50,"activity change, negative = inhibition"
Cc1ccc(N2C(=O)C3C4C=CC(CNC(=S)Nc5ccc(Cl)cc5)(O4)C3C2=O)cc1 (stereo not given),11.9 µM,–
O=C(c1ccccc1)c1ccccc1N1C(=O)C=CC1=O,1.71 µM,–
O=C(NC(c1ccc(Cl)cc1)c1cc(Cl)c2cccnc2c1O)c1cccnc1 (stereo not given),24.4 µM,–
CCC1=NN2C(=N)/C(=C\c3cccn3-c3ccc(C)cc3C)C(=O)N=C2S1,8.14 µM,–
COc1ccc(N2CCN(C(=O)c3ccc(Br)cc3)CC2)c([N+](=O)[O-])c1,0.497 µM,–
Cc1ccc(/C=[N+](\[O-])c2ccc(N(C)C)cc2)c2nsnc12,8.1 µM,–
COc1ccc(N=Nc2ccc(O)c3ncccc23)cc1,4.61 µM,–
Cc1ccc(C(=O)OCn2ncc(Cl)c(Cl)c2=O)cc1,3.23 µM,–
O=c1cc(-c2ccccc2)cc(-c2ccccc2)n1O,1.17 µM,–
O=C1CCCN1CCC1CCN(C2CC(=O)N(c3ccc(Cl)cc3)C2=O)CC1 (stereo not given),4.79 µM,–
COc1ccccc1-c1sc2ccccc2c1-c1ccc(O)cc1,3.78 µM,–
O=C1C2C3C=CC(C3)C2C(=O)N1CN(Cc1ccccc1)CN1C(=O)C2C3C=CC(C3)C2C1=O (stereo not given),16.6 µM,–
CCCCC(=O)NC(c1cccc([N+](=O)[O-])c1)c1ccc2cccnc2c1O (stereo not given),2.62 µM,–
F[B-](F)(F)c1cc2cc(Br)ccc2s1,6.2 µM,–
CC(C)=CCc1c2c(c3occ(-c4ccc(O)c(O)c4)c(=O)c3c1O)C=CC(C)(C)O2,8.75 µM,–
Cc1cc2cc(CNC(=O)c3ccc(C)c([N+](=O)[O-])c3)ccc2[nH]1,8.29 µM,–
Cc1ccc(S(=O)(=O)N(C(=O)c2ccncc2)c2ccc(OC(=O)c3ccncc3)cc2)c(C)c1,3.45 µM,–
COc1cc(C#Cc2c(-c3cncn3C)n(C)c3ccc(-c4ccc(OC)nc4)cc23)cc(OC)c1,4.74 µM,–
Cc1ccc(C(=O)ONC(=O)c2ccc(Cl)cc2)cc1[N+](=O)[O-],0.387 µM,–
CCCOc1ccc2ccccc2c1/C=C1\SC(=O)NC1=O,7.76 µM,–
CCN1/C(=C/c2ccc3cc(C)ccc3[n+]2CC)Sc2ccccc21,8.11 µM,–
COc1ccc(-c2sc3ccccc3c2/C=C/c2ccncc2)cc1,4.84 µM,–
COc1ccc(C(=O)/C=C/c2ccc(-c3ccccc3)cc2)cc1CSCC(=O)O,6.01 µM,–
O=Cc1ccc(O)c2ncccc12,< 0.195 µM,–
CCCCCCCCn1sccc1=O,0.871 µM,–
CCOc1ccc(S(=O)(=O)NCc2ccccn2)c(C)c1C,–,14.4% (inactive)
S=C1Cc2ccccc2N1,3.36 µM,–
COc1ccc(-c2nnc(SCC(=O)Oc3ccc(C)cc3)o2)cc1,2.02 µM,–

Structure (SMILES),AC50,"activity change, negative = inhibition"
O=C(Nc1ccccc1)Oc1cccc2cccnc12,2.12 µM,–
Oc1c(Cl)cc(Cl)c(Cl)c1Cc1c(O)c(Cl)cc(Cl)c1Cl,0.676 µM,–
COc1ccc(C(=O)COC(=O)c2cc([N+](=O)[O-])ccc2N2CCOCC2)c(OC)c1,13.8 µM,–
C=C1C(=O)C23CCC4C(C)(C(=O)OC)CCCC4(C)C2CCC1(O)C3 (stereo not given),1.54 µM,–
Cc1ccc2nc(-c3cccc(NS(C)(=O)=O)c3)cc(-c3ccccc3)c2c1,9.6 µM,–
O=S(=O)(/C=C/c1ccccc1)NC1CCCCCC1,4.16 µM,–
O=C(CSc1ccc(-c2ccccn2)nn1)Nc1ccccc1,–,-18.1% (inactive)
CC(=O)NC(c1ccccc1)c1cc(Cl)c2cccnc2c1O (stereo not given),7.28 µM,–
COc1cccc(/C=C2/CCC(CN(C)C)C2=O)c1 (stereo not given),7.93 µM,–
c1ccc(-c2nnc(-c3ccccn3)nc2NC2CCCCC2)cc1,0.393 µM,–
O=C(O)c1cccc2c1Cc1cc([N+](=O)[O-])ccc1-2,0.808 µM,–
O=C(CSCC(=O)N1CCCCC1)Nc1nc(-c2ccc(Cl)s2)cs1,4.76 µM,–
CCCCC(=O)NC(c1ccc(C(C)C)cc1)c1ccc2cccnc2c1O (stereo not given),6.98 µM,–
Cc1ccc(/C=C/C(=O)c2ccccc(=O)c2O)c(C)c1,1.93 µM,–
CCCCCCCCCCOC(=O)Cn1c(COc2cccc(C)c2)[n+](C)c2ccccc21,15.5 µM,–
CCN(CC)C(=S)SSC(=S)N(CC)CC,4.55 µM,–
CCC(C)n1ncn(-c2ccc(N3CCN(c4ccc(OCC5COC(Cn6cncn6)(c6ccc(Cl)cc6Cl)O5)cc4)CC3)cc2)c1=O (stereo not given),< 0.195 µM,–
Clc1ccc(CSC(Cn2ccnc2)c2ccc(Cl)cc2Cl)cc1 (stereo not given),0.576 µM,–
C[C@@H]1C[C@@H]2O[C@H]2/C=C\C=C\C(=O)Cc2c(Cl)c(O)cc(O)c2C(=O)O1,2.51 µM,–
CCCC(=O)NC(c1ccc(Cl)cc1)c1ccc2cccnc2c1O (stereo not given),7.47 µM,–
c1ccc(C(=NNc2nc3ccccc3s2)c2ccccn2)cc1,22.3 µM,–
Cc1cccc(C)c1OCC(=O)NNC(=S)NC(=O)C1CC1,1.35 µM,–
Cc1cc(C)cc(N2C(=O)C=CC2=O)c1,< 0.195 µM,–
COc1ccc(NC(=S)Nc2ccc3snnc3c2)cc1,–,-20.2% (inactive)
Cc1ccc(-n2c(Cl)c(Cl)nc(Cl)c2=O)cc1,1.2 µM,–
CCOC(=O)c1ccc(N2C(=O)CC(N3CCC(Nc4ccc(F)cc4)CC3)C2=O)cc1 (stereo not given),4.58 µM,–
CCc1sc(C(=O)Nc2nc(-c3ccccn3)cs2)cc1C,8.12 µM,–
